Article PMC6429214, “Design, Synthesis and Biological Evaluation of Isoxazole-Based CK1 Inhibitors Modified with Chiral Pyrrolidine Scaffolds” (Molecules, 2019)

Experiments:
Experiment in all cases: 33PanQinase panel
Assay type in all cases: biochemical
DCAMKL2 = target: T1, DCAMKL2 (Homo sapiens, UniProt Q8N568); details: DCAMKL2, 1 µM; read-out: Residual Activity (%)
T1 construct: purchased ProQinase
In short: (§1)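 Measured value: residual activity (%) vs DMSO. Conditions: 1 µM compound, 1% DMSO, radiometric 33PanQinase format, 320 wild-type kinase panel.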

DAPK2 = target: T2, DAPK2 (Homo sapiens, UniProt Q9UIK4); details: DAPK2, 1 µM; read-out: Residual Activity (%)
T2 construct: purchased ProQinase
In short: as §1

VEGF-R3 = target: T3, VEGF-R3 (Homo sapiens, UniProt P35916); details: VEGF-R3, 1 µM; read-out: Residual Activity (%)
T3 construct: purchased ProQinase
In short: as §1

CDK1/CycE1 = target: T4, CDK1/CycE1 (Homo sapiens, UniProt P06493); details: CDK1/CycE1, 1 µM; read-out: Residual Activity (%)
T4 construct: purchased ProQinase
In short: as §1

EPHA7 = target: T5, EPHA7 (Homo sapiens, UniProt Q15375); details: EPHA7, 1 µM; read-out: Residual Activity (%)
T5 construct: purchased ProQinase
In short: as §1

FGF-R3 = target: T6, FGF-R3 (Homo sapiens, UniProt P22607); details: FGF-R3, 1 µM; read-out: Residual Activity (%)
T6 construct: purchased ProQinase
In short: as §1

AMPK-alpha1 aa1-550 = target: T7, AMPK-alpha1 aa1-550 (Homo sapiens, UniProt Q13131); details: AMPK-alpha1 aa1-550, 1 µM; read-out: Residual Activity (%)
T7 construct: purchased ProQinase
In short: as §1

TIE2 = target: T8, TIE2 (Homo sapiens, UniProt Q02763); details: TIE2, 1 µM; read-out: Residual Activity (%)
T8 construct: purchased ProQinase
In short: as §1

ERK1 = target: T9, ERK1 (Homo sapiens, UniProt P27361); details: ERK1, 1 µM; read-out: Residual Activity (%)
T9 construct: purchased ProQinase
T9 sequence (P27361 whole entry): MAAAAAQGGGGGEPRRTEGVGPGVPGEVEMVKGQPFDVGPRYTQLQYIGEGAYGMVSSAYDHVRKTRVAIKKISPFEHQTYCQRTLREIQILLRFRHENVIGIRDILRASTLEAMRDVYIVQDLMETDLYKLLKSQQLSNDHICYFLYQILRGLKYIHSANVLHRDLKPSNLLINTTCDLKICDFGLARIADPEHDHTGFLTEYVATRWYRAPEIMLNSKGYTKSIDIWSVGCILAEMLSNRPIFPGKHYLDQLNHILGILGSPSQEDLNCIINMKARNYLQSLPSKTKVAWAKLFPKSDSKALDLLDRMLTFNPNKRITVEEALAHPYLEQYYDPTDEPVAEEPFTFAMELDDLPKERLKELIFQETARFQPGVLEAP
In short: as §1

MUSK = target: T10, MUSK (Homo sapiens, UniProt O15146); details: read-out: Residual Activity (%)
T10 construct: purchased ProQinase
T10 sequence (O15146 24-869): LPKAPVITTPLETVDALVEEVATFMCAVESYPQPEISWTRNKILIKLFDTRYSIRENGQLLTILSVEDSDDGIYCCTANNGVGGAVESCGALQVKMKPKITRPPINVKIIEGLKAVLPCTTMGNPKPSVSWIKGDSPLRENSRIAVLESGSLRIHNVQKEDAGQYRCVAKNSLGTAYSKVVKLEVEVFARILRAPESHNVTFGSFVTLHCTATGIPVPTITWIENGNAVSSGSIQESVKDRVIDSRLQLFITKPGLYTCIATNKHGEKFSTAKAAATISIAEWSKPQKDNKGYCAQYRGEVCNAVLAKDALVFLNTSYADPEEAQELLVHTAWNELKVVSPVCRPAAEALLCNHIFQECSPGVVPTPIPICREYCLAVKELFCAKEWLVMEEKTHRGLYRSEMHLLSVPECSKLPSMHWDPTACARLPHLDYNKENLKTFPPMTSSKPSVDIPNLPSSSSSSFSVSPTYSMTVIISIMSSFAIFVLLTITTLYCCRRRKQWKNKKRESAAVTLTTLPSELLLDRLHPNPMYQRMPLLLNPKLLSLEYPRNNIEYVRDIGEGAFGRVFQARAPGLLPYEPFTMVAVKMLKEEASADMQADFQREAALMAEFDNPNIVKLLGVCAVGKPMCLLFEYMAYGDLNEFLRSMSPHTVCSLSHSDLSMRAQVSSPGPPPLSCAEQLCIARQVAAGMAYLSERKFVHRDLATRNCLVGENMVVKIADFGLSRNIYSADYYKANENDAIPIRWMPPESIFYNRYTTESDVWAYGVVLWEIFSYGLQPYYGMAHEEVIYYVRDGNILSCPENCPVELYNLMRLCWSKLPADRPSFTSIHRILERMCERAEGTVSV
In short: as §1

EPHA4 = target: T11, EPHA4 (Homo sapiens, UniProt P54764); details: EPHA4, 1 µM; read-out: Residual Activity (%)
T11 construct: purchased ProQinase
In short: as §1

JNK1 = target: T12, JNK1 (Homo sapiens, UniProt P45983); details: JNK1, 1 µM; read-out: Residual Activity (%)
T12 construct: purchased ProQinase
In short: as §1

ACV-R1B = target: T13, ACV-R1B (Homo sapiens, UniProt P36896); details: read-out: Residual Activity (%)
T13 construct: purchased ProQinase
T13 sequence (P36896 24-505): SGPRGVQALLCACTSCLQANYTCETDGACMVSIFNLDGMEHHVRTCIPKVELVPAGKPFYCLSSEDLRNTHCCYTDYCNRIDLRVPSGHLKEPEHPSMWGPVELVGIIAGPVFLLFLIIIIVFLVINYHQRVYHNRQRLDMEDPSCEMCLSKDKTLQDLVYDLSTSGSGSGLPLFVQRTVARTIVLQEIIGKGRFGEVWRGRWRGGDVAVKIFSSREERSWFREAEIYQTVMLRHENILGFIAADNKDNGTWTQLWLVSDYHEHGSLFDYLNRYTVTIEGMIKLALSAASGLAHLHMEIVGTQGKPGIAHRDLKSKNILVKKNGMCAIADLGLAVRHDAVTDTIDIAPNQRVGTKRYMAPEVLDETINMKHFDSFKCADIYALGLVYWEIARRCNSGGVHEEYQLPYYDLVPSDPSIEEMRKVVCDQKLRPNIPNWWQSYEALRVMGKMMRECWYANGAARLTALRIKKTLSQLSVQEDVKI
In short: as §1

CK1-gamma2 = target: T14, CK1-gamma2 (Homo sapiens, UniProt P78368); details: CK1-gamma2, 1 µM; read-out: Residual Activity (%)
T14 construct: purchased ProQinase
In short: as §1

MEK1 = target: T15, MEK1 (Homo sapiens, UniProt Q02750); details: MEK1, 1 µM; read-out: Residual Activity (%)
T15 construct: purchased ProQinase
In short: as §1

FGF-R1 = target: T16, FGF-R1 (Homo sapiens, UniProt P11362); details: FGF-R1, 1 µM; read-out: Residual Activity (%)
T16 construct: purchased ProQinase
T16 sequence (P11362 22-822): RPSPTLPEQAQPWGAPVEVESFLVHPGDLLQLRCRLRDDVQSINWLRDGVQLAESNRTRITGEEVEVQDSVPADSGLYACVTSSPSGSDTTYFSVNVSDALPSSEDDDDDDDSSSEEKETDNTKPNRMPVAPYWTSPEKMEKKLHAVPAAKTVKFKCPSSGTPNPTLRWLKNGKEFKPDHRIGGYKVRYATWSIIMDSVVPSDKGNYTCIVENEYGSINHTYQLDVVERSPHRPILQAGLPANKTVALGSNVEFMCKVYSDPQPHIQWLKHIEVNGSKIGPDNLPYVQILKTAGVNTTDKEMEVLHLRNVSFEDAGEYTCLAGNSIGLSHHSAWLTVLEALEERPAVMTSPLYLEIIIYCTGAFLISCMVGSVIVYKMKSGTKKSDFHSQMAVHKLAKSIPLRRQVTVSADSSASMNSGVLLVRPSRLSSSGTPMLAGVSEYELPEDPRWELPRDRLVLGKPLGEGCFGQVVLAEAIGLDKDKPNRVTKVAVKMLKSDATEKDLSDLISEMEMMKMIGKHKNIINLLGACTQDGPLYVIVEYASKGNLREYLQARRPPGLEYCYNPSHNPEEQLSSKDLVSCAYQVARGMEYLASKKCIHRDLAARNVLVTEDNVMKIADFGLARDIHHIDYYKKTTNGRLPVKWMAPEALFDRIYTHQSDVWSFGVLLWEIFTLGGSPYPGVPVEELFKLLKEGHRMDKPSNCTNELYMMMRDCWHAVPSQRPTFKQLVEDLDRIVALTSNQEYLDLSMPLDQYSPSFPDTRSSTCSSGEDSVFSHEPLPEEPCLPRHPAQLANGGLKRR
In short: as §1

HIPK4 = target: T17, HIPK4 (Homo sapiens, UniProt Q8NE63); details: HIPK4, 1 µM; read-out: Residual Activity (%)
T17 construct: purchased ProQinase
T17 sequence (Q8NE63 whole entry): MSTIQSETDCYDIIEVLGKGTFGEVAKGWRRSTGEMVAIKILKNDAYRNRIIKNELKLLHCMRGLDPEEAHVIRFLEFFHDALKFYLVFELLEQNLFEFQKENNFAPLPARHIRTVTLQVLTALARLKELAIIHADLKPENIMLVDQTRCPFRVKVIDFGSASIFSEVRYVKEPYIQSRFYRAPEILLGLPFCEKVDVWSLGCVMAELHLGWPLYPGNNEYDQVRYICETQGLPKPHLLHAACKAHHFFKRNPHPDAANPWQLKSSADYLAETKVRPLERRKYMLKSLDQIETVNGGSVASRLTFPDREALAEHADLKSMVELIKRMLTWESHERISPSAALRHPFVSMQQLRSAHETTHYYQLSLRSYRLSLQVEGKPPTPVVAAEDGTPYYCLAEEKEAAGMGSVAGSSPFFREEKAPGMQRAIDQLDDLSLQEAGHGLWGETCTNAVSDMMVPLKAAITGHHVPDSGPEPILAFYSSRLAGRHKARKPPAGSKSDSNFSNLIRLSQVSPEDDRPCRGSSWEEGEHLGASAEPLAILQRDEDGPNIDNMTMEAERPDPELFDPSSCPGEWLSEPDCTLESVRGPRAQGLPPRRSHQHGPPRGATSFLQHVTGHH
In short: as §1

WEE1 = target: T18, WEE1 (Homo sapiens, UniProt P30291); details: WEE1, 1 µM; read-out: Residual Activity (%)
T18 construct: purchased ProQinase
In short: as §1

ERK5 = target: T19, ERK5 (Homo sapiens, UniProt Q13164); details: ERK5, 1 µM; read-out: Residual Activity (%)
T19 construct: purchased ProQinase
In short: as §1

BMX = target: T20, BMX (Homo sapiens, UniProt P51813); details: read-out: Residual Activity (%)
T20 construct: purchased ProQinase
T20 sequence (P51813 whole entry): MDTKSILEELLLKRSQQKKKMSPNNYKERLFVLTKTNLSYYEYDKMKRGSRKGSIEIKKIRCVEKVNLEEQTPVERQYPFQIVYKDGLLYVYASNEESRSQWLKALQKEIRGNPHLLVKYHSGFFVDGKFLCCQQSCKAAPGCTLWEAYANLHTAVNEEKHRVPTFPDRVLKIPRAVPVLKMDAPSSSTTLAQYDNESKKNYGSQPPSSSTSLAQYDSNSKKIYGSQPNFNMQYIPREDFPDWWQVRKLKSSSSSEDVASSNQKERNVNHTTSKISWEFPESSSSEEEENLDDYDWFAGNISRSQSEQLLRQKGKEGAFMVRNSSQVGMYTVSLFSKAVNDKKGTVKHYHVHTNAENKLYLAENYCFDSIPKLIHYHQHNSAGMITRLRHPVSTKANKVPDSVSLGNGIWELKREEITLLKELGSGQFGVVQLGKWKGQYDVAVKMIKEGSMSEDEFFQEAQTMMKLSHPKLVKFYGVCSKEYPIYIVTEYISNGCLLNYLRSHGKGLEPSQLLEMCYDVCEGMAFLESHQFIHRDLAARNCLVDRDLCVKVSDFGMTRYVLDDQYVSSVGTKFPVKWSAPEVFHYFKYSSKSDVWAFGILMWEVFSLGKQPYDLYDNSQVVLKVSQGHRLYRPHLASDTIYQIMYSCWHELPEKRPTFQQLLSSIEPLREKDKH
In short: as §1

PAK4 = target: T21, PAK4 (Homo sapiens, UniProt O96013); details: PAK4, 1 µM; read-out: Residual Activity (%)
T21 construct: purchased ProQinase
T21 sequence (O96013 whole entry): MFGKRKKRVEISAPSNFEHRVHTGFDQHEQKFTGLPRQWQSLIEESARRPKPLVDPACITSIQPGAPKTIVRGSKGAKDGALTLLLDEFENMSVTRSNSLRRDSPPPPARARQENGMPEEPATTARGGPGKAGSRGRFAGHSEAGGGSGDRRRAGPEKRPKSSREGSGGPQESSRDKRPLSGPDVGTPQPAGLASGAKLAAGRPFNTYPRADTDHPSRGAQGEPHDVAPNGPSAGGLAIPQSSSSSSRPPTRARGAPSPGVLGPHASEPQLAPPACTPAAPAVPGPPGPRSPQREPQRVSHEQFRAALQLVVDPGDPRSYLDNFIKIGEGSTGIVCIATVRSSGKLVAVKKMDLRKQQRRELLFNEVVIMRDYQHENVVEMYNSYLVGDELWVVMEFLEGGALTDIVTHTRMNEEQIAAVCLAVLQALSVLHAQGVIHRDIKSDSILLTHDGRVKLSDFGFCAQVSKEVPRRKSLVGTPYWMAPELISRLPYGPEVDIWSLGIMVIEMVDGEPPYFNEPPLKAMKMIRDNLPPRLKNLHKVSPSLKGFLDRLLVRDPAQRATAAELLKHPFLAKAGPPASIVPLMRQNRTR
In short: as §1

CDK6/CycD3 = target: T22, CDK6/CycD3 (Homo sapiens, UniProt Q00534); details: CDK6/CycD3, 1 µM; read-out: Residual Activity (%)
T22 construct: purchased ProQinase
In short: as §1

RPS6KA3 = target: T23, RPS6KA3 (Homo sapiens, UniProt P51812); details: RPS6KA3, 1 µM; read-out: Residual Activity (%)
T23 construct: purchased ProQinase
In short: as §1

PLK1 = target: T24, PLK1 (Homo sapiens, UniProt P53350); details: PLK1, 1 µM; read-out: Residual Activity (%)
T24 construct: purchased ProQinase
In short: as §1

PKC-epsilon = target: T25, PKC-epsilon (Homo sapiens, UniProt Q02156); details: read-out: Residual Activity (%)
T25 construct: purchased ProQinase
In short: as §1

EEF2K = target: T26, EEF2K (Homo sapiens, UniProt O00418); details: read-out: Residual Activity (%)
T26 construct: purchased ProQinase
In short: as §1

RIPK2 = target: T27, RIPK2 (Homo sapiens, UniProt O43353); details: RIPK2, 1 µM; read-out: Residual Activity (%)
T27 construct: purchased ProQinase
T27 sequence (O43353 whole entry): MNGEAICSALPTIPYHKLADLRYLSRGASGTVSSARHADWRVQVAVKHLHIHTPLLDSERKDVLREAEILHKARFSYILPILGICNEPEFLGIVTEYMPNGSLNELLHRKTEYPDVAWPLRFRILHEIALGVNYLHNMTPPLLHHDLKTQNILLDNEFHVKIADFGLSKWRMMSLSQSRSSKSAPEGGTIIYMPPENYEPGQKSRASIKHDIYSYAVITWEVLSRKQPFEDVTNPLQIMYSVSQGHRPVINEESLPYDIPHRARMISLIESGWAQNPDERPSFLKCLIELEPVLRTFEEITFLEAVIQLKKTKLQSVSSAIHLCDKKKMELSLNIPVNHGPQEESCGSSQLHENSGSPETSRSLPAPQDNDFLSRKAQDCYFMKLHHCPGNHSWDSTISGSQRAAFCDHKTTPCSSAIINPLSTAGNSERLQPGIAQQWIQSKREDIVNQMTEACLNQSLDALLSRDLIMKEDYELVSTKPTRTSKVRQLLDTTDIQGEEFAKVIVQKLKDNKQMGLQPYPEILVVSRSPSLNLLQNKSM
In short: as §1

MEKK2 = target: T28, MEKK2 (Homo sapiens, UniProt Q9Y2U5); details: MEKK2, 1 µM; read-out: Residual Activity (%)
T28 construct: purchased ProQinase
In short: as §1

`COc1ccc(-c2cc(C(=O)Nc3cc(-c4c(-c5ccc(F)cc5)noc4C(C)C)ccn3)n(CC3NCC(O)C3O)c2)cc1` (stereo not shown) [29d] showed a remaining activity at 1 µM (DCAMKL2) of 86%, a remaining activity at 1 µM (DAPK2) of 96% and a remaining activity at 1 µM (VEGF-R3) of 124%. It also gave a remaining activity at 1 µM (CDK1/CycE1) of 100%, a remaining activity at 1 µM (EPHA7) of 100% and a remaining activity at 1 µM (FGF-R3) of 118%. The remaining activity at 1 µM (AMPK-alpha1 aa1-550) was 99%, the remaining activity at 1 µM (TIE2) was 110% and the remaining activity at 1 µM (ERK1) was 102%. It also gave a remaining activity at 1 µM (MUSK) of 97%, a remaining activity at 1 µM (EPHA4) of 100% and a remaining activity at 1 µM (JNK1) of 63%. It also gave a remaining activity at 1 µM (ACV-R1B) of 103%, a remaining activity at 1 µM (CK1-gamma2) of 80% and a remaining activity at 1 µM (MEK1) of 90%. The remaining activity at 1 µM (FGF-R1) was 138%, the remaining activity at 1 µM (HIPK4) was 91% and the remaining activity at 1 µM (WEE1) was 95%. It also gave a remaining activity at 1 µM (ERK5) of 93%, a remaining activity at 1 µM (BMX) of 96% and a remaining activity at 1 µM (PAK4) of 92%. It also gave a remaining activity at 1 µM (CDK6/CycD3) of 98%, a remaining activity at 1 µM (RPS6KA3) of 107% and a remaining activity at 1 µM (PLK1) of 98%. It also gave a remaining activity at 1 µM (PKC-epsilon) of 84%, a remaining activity at 1 µM (EEF2K) of 99% and a remaining activity at 1 µM (RIPK2) of 108%. The remaining activity at 1 µM (MEKK2) was 111%.
